Data taken from the supplement of paper PMC11451515.

System: NOMO1
Experiment: cell viability relative to DMSO control; higher = less cytotoxic
Details: 48 h
Procedure, shortened: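 NOMO1, SEM and P12-Ichikawa leukemia cells spent at least four passages adapting to each medium before use. They were seeded at 500 cells/well (NOMO1, SEM) or 1000 cells/well (P12-Ichikawa) in 5 μl in 1536-well plates and pin-dosed with library compounds in DMSO at 11 threefold steps from 47 μM down to 0.79 nM. After 48 h at 37°C, CellTiter-Glo One luminescence was read. Viability is reported as a percentage of the DMSO wells on each plate, with cell-free wells as background.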

[1] = HPLM + 10% dialyzed FBS, 0.000781 µM
[2] = HPLM + 10% dialyzed FBS, 0.00234 µM
[3] = HPLM + 10% dialyzed FBS, 0.00702 µM
[4] = HPLM + 10% dialyzed FBS, 0.0211 µM
[5] = HPLM + 10% dialyzed FBS, 0.0632 µM
[6] = HPLM + 10% dialyzed FBS, 0.19 µM
[7] = HPLM + 10% dialyzed FBS, 0.569 µM
[8] = HPLM + 10% dialyzed FBS, 1.71 µM
[9] = HPLM + 10% dialyzed FBS, 5.12 µM
[10] = HPLM + 10% dialyzed FBS, 15.4 µM
[11] = HPLM + 10% dialyzed FBS, 46.1 µM
[12] = RPMI 5 mM glucose + 10% FBS, 0.000781 µM
[13] = RPMI 5 mM glucose + 10% FBS, 0.00234 µM
[14] = RPMI 5 mM glucose + 10% FBS, 0.00702 µM
[15] = RPMI 5 mM glucose + 10% FBS, 0.0211 µM
[16] = RPMI 5 mM glucose + 10% FBS, 0.0632 µM
[17] = RPMI 5 mM glucose + 10% FBS, 0.19 µM
[18] = RPMI 5 mM glucose + 10% FBS, 0.569 µM
[19] = RPMI 5 mM glucose + 10% FBS, 1.71 µM
[20] = RPMI 5 mM glucose + 10% FBS, 5.12 µM
[21] = RPMI 5 mM glucose + 10% FBS, 15.4 µM
[22] = RPMI 5 mM glucose + 10% FBS, 46.1 µM
[23] = RPMI 5 mM glucose + 10% dialyzed FBS, 0.000781 µM
[24] = RPMI 5 mM glucose + 10% dialyzed FBS, 0.00234 µM
[25] = RPMI 5 mM glucose + 10% dialyzed FBS, 0.00702 µM
[26] = RPMI 5 mM glucose + 10% dialyzed FBS, 0.0211 µM
[27] = RPMI 5 mM glucose + 10% dialyzed FBS, 0.0632 µM
[28] = RPMI 5 mM glucose + 10% dialyzed FBS, 0.19 µM
[29] = RPMI 5 mM glucose + 10% dialyzed FBS, 0.569 µM
[30] = RPMI 5 mM glucose + 10% dialyzed FBS, 1.71 µM
[31] = RPMI 5 mM glucose + 10% dialyzed FBS, 5.12 µM
[32] = RPMI 5 mM glucose + 10% dialyzed FBS, 15.4 µM
[33] = RPMI 5 mM glucose + 10% dialyzed FBS, 46.1 µM

Row | Compound | cell viability [1] | cell viability [2] | cell viability [3] | cell viability [4] | cell viability [5] | cell viability [6] | cell viability [7] | cell viability [8] | cell viability [9] | cell viability [10] | cell viability [11] | cell viability [12] | cell viability [13] | cell viability [14] | cell viability [15] | cell viability [16] | cell viability [17] | cell viability [18] | cell viability [19] | cell viability [20] | cell viability [21] | cell viability [22] | cell viability [23] | cell viability [24] | cell viability [25] | cell viability [26] | cell viability [27] | cell viability [28] | cell viability [29] | cell viability [30] | cell viability [31] | cell viability [32] | cell viability [33]
1 | COc1ccc(C(CN(C)C)C2(O)CCCCC2)cc1 (configuration not stated) | 101% | 125% | 124% | 125% | 115% | 127% | 120% | 104% | 124% | 94.5% | 95.3% | 44.9% | 118% | 122% | 118% | 113% | 120% | 104% | 104% | 107% | 97.2% | 109% | 46.1% | 111% | 111% | 117% | 105% | 104% | 96.4% | 109% | 97.9% | 111% | 100%
2 | COc1ccc(OC)c(-c2nnc3ccc(-c4ccc(OC)c(O[C@@H]5CCOC5)c4)nn23)c1 | – | – | – | – | – | – | – | – | – | – | – | – | – | – | – | – | – | – | – | – | – | – | 123% | 120% | 140% | 128% | 137% | 140% | 134% | 147% | 137% | 145% | 98.3%
3 | CCC[S+](=O)([O-])Nc1ccc(F)c(C(=O)c2c[nH]c3ncc(Cl)cc23)c1F | – | – | – | – | – | – | – | – | – | – | – | 112% | 110% | 115% | 117% | 120% | 121% | 114% | 108% | 107% | 62.6% | 43.8% | 116% | 119% | 117% | 100% | 107% | 128% | 119% | 122% | 123% | 62.3% | 42.9%
4 | CCCC(C)(COC(N)=O)COC(=O)NC(C)C (configuration not stated) | 107% | 123% | 125% | 138% | 143% | 131% | 127% | 130% | 123% | 141% | 140% | 116% | 122% | 132% | 127% | 145% | 130% | 127% | 125% | 137% | 150% | 129% | – | – | – | – | – | – | – | – | – | – | –
5 | CCN(CCO)CCCOc1ccc2c(Nc3cc(CC(=O)Nc4cccc(F)c4)[nH]n3)ncnc2c1 | 110% | 128% | 102% | 114% | 106% | 85.7% | 82.7% | 76.2% | 77.8% | 81.6% | 45.1% | 113% | 105% | 120% | 113% | 98.5% | 65.6% | 50.5% | 44.7% | 40.9% | 54.1% | 54% | 110% | 110% | 105% | 111% | 104% | 63.8% | 52.6% | 50.2% | 51.7% | 56.9% | 80.6%
6 | Cc1ccccc1C(OCCN(C)C)c1ccccc1 (configuration not stated) | 102% | 117% | 145% | 138% | 135% | 143% | 142% | 122% | 116% | 125% | 57.5% | 121% | 112% | 120% | 120% | 120% | 115% | 125% | 125% | 127% | 117% | 116% | – | – | – | – | – | – | – | – | – | – | –
7 | C[C@@H]1O[C@@H](O[C@H]2C[C@@H](O)[C@]3(CO)[C@H]4[C@H](O)C[C@]5(C)[C@@H](C6=CC(=O)OC6)CC[C@]5(O)[C@@H]4CC[C@]3(O)C2)[C@H](O)[C@H](O)[C@H]1O | 94.8% | 104% | 99% | 81.8% | 32.9% | 14.5% | 9.66% | 8.1% | 8.19% | 8.12% | 6.11% | 93.1% | 95.2% | 109% | 110% | 95.3% | 39.6% | 13.6% | 8.12% | 8.09% | 7.5% | 5.41% | 97.8% | 109% | 103% | 117% | 73.2% | 30% | 11.3% | 6.76% | 6.52% | 6.15% | 5.29%
8 | O=C1\C=C/C=C2/[C@H]3CNC[C@H](C3)CN12 | 112% | 125% | 120% | 111% | 133% | 126% | 130% | 129% | 116% | 97.9% | 27.7% | 105% | 107% | 124% | 107% | 110% | 120% | 112% | 123% | 111% | 100% | 46.9% | 96.7% | 98.4% | 107% | 109% | 119% | 118% | 122% | 112% | 102% | 104% | 64.2%
9 | C[N]1C=C(C2=CC=CC=C12)\C3=C(\C(=O)NC3=O)C4=C[N](C5CCN(CC5)CC6=NC=CC=C6)C7=C4C=CC=C7 | 115% | 115% | 110% | 116% | 133% | 116% | 133% | 131% | 129% | 120% | 140% | 100% | 118% | 110% | 107% | 113% | 110% | 109% | 101% | 105% | 129% | 120% | 102% | 113% | 110% | 113% | 119% | 116% | 118% | 116% | 134% | 138% | 113%
